Laboratory results reported in patent publication US8143227B2, “Azithromycin for treatment of skin disorders” (priority 2008, dated 2012).
Where two headings read alike, the source gives them in different places.

How the values were obtained:
[1] = Azithromycin levels in sebum (Sebutape patches); assay type: in vivo, human; settings: for concentration at 42 day: human, sebum, oral
Description: Sebum was collected from the subjects of Example 1 by use of Sebutape® (CuDerm Corporation, Dallas Tex.). On study days 0, 21, 42, and 70, each subject placed three Sebutape® adhesive patches on each of the forehead, and left and right cheeks on the skin of the face and left the patches in place for 30 to 40 minutes. The patches were then removed, folded in half with the adhesive side inward, placed in a sealed glass vial, and frozen at −20° C. to −70° C. […] Each Sebutape® patch was analyzed for quantity in nanograms of azithromycin.

moderate to severe acne = test: Efficacy against acne (lesion counts), 40/80/120 mg per day; assay type: in vivo, human
Description: The subjects of Example 1 were evaluated for efficacy of each dosage (40 mg, 80 mg, or 120 mg per day) in treating moderate to severe acne following treatment for 6 weeks. Before starting the treatment protocol, the number of facial non-inflammatory lesions (open and closed comedones), inflammatory lesions (papules, pustules, and nodules), and nodules were counted. The numbers of these lesions were counted again at day 21 of treatment and at day 42. The % decrease from Day 0 was calculated as the mean of the differences for each of the parameters (non-inflammatory lesions, inflammatory lesion and nodules) for each individual subject on Day 21 and Day 42. The results, including average lesion counts and efficacy assessment by percent decrease in lesion counts, are shown for the 40 mg, 80 mg, and 120 mg group, respectively, in Tables 4, 5, and 6.

[2] = 40 mg/day for 6 weeks, Day 0 (before treatment)
[3] = 80 mg/day for 6 weeks, Day 0 (before treatment)

CC[C@H]1OC(=O)[C@H](C)[C@@H](O[C@H]2C[C@@](C)(OC)[C@@H](O)[C@H](C)O2)[C@H](C)[C@@H](O[C@@H]2O[C@H](C)C[C@H](N(C)C)[C@H]2O)[C@](C)(O)C[C@@H](C)CN(C)[C@H](C)[C@@H](O)[C@]1(C)O [Azithromycin, 9-deoxo-9a-aza-9a-methyl-9a-homoerythromycin A]
Sebum Concentration (median) ng per sample ([1]; 40 mg/day, Day 0): 0.00 ng per sample | Sebum Concentration (median) ([1]; 40 mg/day, Day 0, ng per sample divided by 1.38 mg): .00 ng/mg | Sebum Concentration (median) ([1]; 40 mg/day, Day 0, ng/mg times […]): .00 ng/µL | Sebum Concentration (median) ng per sample ([1]; 40 mg/day, Day 21): 0.00 ng per sample | Sebum Concentration (median) ([1]; 40 mg/day, Day 21, ng per sample divided by 1.38 mg): .00 ng/mg | Sebum Concentration (median) ([1]; 40 mg/day, Day 21, ng/mg times […]): .00 ng/µL | Sebum Concentration (median) ng per sample ([1]; 40 mg/day, Day 42): 0.19 ng per sample | Sebum Concentration (median) ([1]; 40 mg/day, Day 42, ng per sample divided by 1.38 mg): .14 ng/mg | Sebum Concentration (median) ([1]; 40 mg/day, Day 42, ng/mg times […]): .12 ng/µL | Sebum Concentration (median) ng per sample ([1]; 40 mg/day, Day 70 (28 days after last dose)): 0.00 ng per sample | Sebum Concentration (median) ([1]; 40 mg/day, Day 70, ng per sample divided by 1.38 mg): .00 ng/mg | Sebum Concentration (median) ([1]; 40 mg/day, Day 70, ng/mg times […]): .00 ng/µL | Sebum Concentration (median) ng per sample ([1]; 80 mg/day, Day 0): 0.00 ng per sample | Sebum Concentration (median) ([1]; 80 mg/day, Day 0, ng per sample divided by 1.38 mg): .00 ng/mg | Sebum Concentration (median) ([1]; 80 mg/day, Day 0, ng/mg times […]): .00 ng/µL | Sebum Concentration (median) ng per sample ([1]; 80 mg/day, Day 21): 0.79 ng per sample | Sebum Concentration (median) ([1]; 80 mg/day, Day 21, ng per sample divided by 1.38 mg): .57 ng/mg | Sebum Concentration (median) ([1]; 80 mg/day, Day 21, ng/mg times […]): .50 ng/µL | Sebum Concentration (median) ng per sample ([1]; 80 mg/day, Day 42): 0.84 ng per sample | Sebum Concentration (median) ([1]; 80 mg/day, Day 42, ng per sample divided by 1.38 mg): .61 ng/mg | Sebum Concentration (median) ([1]; 80 mg/day, Day 42, ng/mg times […]): .53 ng/µL | Sebum Concentration (median) ng per sample ([1]; 80 mg/day, Day 70 (28 days after last dose)): 0.00 ng per sample | Sebum Concentration (median) ([1]; 80 mg/day, Day 70, ng per sample divided by 1.38 mg): .00 ng/mg | Sebum Concentration (median) ([1]; 80 mg/day, Day 70, ng/mg times […]): .00 ng/µL | Sebum Concentration (median) ng per sample ([1]; 120 mg/day, Day 0): 0.00 ng per sample | Sebum Concentration (median) ([1]; 120 mg/day, Day 0, ng per sample divided by 1.38 mg): .00 ng/mg | Sebum Concentration (median) ([1]; 120 mg/day, Day 0, ng/mg times […]): .00 ng/µL | Sebum Concentration (median) ng per sample ([1]; 120 mg/day, Day 21): 0.76 ng per sample | Sebum Concentration (median) ([1]; 120 mg/day, Day 21, ng per sample divided by 1.38 mg): .55 ng/mg | Sebum Concentration (median) ([1]; 120 mg/day, Day 21, ng/mg times […]): .48 ng/µL | Sebum Concentration (median) ng per sample ([1]; 120 mg/day, Day 42): 0.88 ng per sample | Sebum Concentration (median) ng per sample ([1]; 120 mg/day, Day 42, listed as azithromycin): about 0.88 ng per sample | Sebum Concentration (median) ([1]; 120 mg/day, Day 42, ng per sample divided by 1.38 mg): .64 ng/mg | Sebum Concentration (median) ([1]; 120 mg/day, Day 42, ng/mg times […]): .55 ng/µL | Sebum Concentration (median) ng per sample ([1]; 120 mg/day, Day 70 (28 days after last dose)): 0.00 ng per sample | Sebum Concentration (median) ([1]; 120 mg/day, Day 70, ng per sample divided by 1.38 mg): .00 ng/mg | Sebum Concentration (median) ([1]; 120 mg/day, Day 70, ng/mg times […]): .00 ng/µL | concentration at 42 day ([1]; 120 mg/day, Day 42, ng per sample divided by 1.38 mg, read-out: Sebum Concentration (median) ng/mg): ~640 ng/g | concentration at 42 day ([1]; 120 mg/day, Day 42, ng/mg times 0.87 mg/μl, read-out: Sebum Concentration (median)): ~550 ng/mL | Inflammatory lesions (average count) (moderate to severe acne; [2]): 30.1 | Nodules (average count) (moderate to severe acne; [2]): 5.2 | Non-inflammatory lesions (average count) (moderate to severe acne; [2]): 36.5 | Inflammatory lesions % Decrease from Day 0 (moderate to severe acne; 40 mg/day for 6 weeks, Day 21): 51.5% | Inflammatory lesions (average count) (moderate to severe acne; 40 mg/day for 6 weeks, Day 21): 14.4 | Nodules % Decrease from Day 0 (moderate to severe acne; 40 mg/day for 6 weeks, Day 21): 62.4% | Nodules (average count) (moderate to severe acne; 40 mg/day for 6 weeks, Day 21): 2.2 | Non-inflammatory lesions % Decrease from Day 0 (moderate to severe acne; 40 mg/day for 6 weeks, Day 21): 30.4% | Non-inflammatory lesions (average count) (moderate to severe acne; 40 mg/day for 6 weeks, Day 21): 23.9 | Inflammatory lesions % Decrease from Day 0 (moderate to severe acne; 40 mg/day for 6 weeks, Day 42): 54.2% | Inflammatory lesions (average count) (moderate to severe acne; 40 mg/day for 6 weeks, Day 42): 13.8 | Nodules % Decrease from Day 0 (moderate to severe acne; 40 mg/day for 6 weeks, Day 42): 82.2% | Nodules (average count) (moderate to severe acne; 40 mg/day for 6 weeks, Day 42): 1.2 | Non-inflammatory lesions % Decrease from Day 0 (moderate to severe acne; 40 mg/day for 6 weeks, Day 42): 38.9% | Non-inflammatory lesions (average count) (moderate to severe acne; 40 mg/day for 6 weeks, Day 42): 21.5 | Inflammatory lesions (average count) (moderate to severe acne; [3]): 37.0 | Nodules (average count) (moderate to severe acne; [3]): 5.5 | Non-inflammatory lesions (average count) (moderate to severe acne; [3]): 38.7 | Inflammatory lesions % Decrease from Day 0 (moderate to severe acne; 80 mg/day for 6 weeks, Day 21): 44.7% | Inflammatory lesions (average count) (moderate to severe acne; 80 mg/day for 6 weeks, Day 21): 19.8 | Nodules % Decrease from Day 0 (moderate to severe acne; 80 mg/day for 6 weeks, Day 21): 72.8%
